Test results taken from PubChem BioAssay AID1963843 (Molecular Pharmacology Branch, DTP, NCI, 2024).

System: 616215-338-R-J1-PDC complex spheroid viability
Test: Anticancer human tumor 616215-338-R-J1-PDC patient-derived colon adenocarcinoma cell line growth inhibition [POLQ]
Details: for IC50: curve of first compound; for viability, T/C: stronger effect = lower value; active = viability on the fitted dose curve at most 10% of control; inactive = the rest
Procedure, shortened: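 Growth inhibition in 3D: complex spheroids (tumor PDC, HUVEC, MSC) treated with POLQ inhibitor combinations; where Cmax unknown, highest tested concentration 10 microM, except SN-38 at 1 microM.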

[1] = second compound 0.0316 µM, first compound 0.0316 µM
[2] = second compound 0.0316 µM, first compound 0.1 µM
[3] = second compound 0.0316 µM, first compound 0.316 µM
[4] = second compound 0.0316 µM, first compound 1 µM
[5] = second compound 0.0316 µM, first compound 3.16 µM
[6] = second compound 0.0316 µM, first compound 10 µM
[7] = second compound 0.1 µM, first compound 0.0316 µM
[8] = second compound 0.1 µM, first compound 0.1 µM
[9] = second compound 0.1 µM, first compound 0.316 µM
[10] = second compound 0.1 µM, first compound 1 µM
[11] = second compound 0.1 µM, first compound 3.16 µM
[12] = second compound 0.1 µM, first compound 10 µM
[13] = second compound 0.316 µM, first compound 0.0316 µM
[14] = second compound 0.316 µM, first compound 0.1 µM
[15] = second compound 0.316 µM, first compound 0.316 µM
[16] = second compound 0.316 µM, first compound 1 µM
[17] = second compound 0.316 µM, first compound 3.16 µM
[18] = second compound 0.316 µM, first compound 10 µM
[19] = second compound 1 µM, first compound 0.0316 µM
[20] = second compound 1 µM, first compound 0.1 µM
[21] = second compound 1 µM, first compound 0.316 µM
[22] = second compound 1 µM, first compound 1 µM
[23] = second compound 1 µM, first compound 3.16 µM
[24] = second compound 1 µM, first compound 10 µM
[25] = second compound 3.16 µM, first compound 0.0316 µM
[26] = second compound 3.16 µM, first compound 0.1 µM
[27] = second compound 3.16 µM, first compound 0.316 µM
[28] = second compound 3.16 µM, first compound 1 µM
[29] = second compound 3.16 µM, first compound 3.16 µM
[30] = second compound 3.16 µM, first compound 10 µM
[31] = second compound 10 µM, first compound 0.0316 µM
[32] = second compound 10 µM, first compound 0.1 µM
[33] = second compound 10 µM, first compound 0.316 µM
[34] = second compound 10 µM, first compound 1 µM
[35] = second compound 10 µM, first compound 3.16 µM
[36] = second compound 10 µM, first compound 10 µM
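Also: spheroids exposed to compounds for one week before readout.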
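For viability, T/C in this document: percent viability relative to DMSO vehicle wells taken as 100%.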

C#Cc1c(F)ccc2cc(O)cc(-c3ncc4c(N5CC6CCC(C5)N6)nc(OCC56CCCN5CC(F)C6)nc4c3F)c12 (stereo not drawn) + Cc1cccc(N(C)C(=O)C2C(O)CCN2c2nc(C)cc(C(F)(F)F)c2C#N)c1
> 10 µM: IC50 (second compound 0.0316 µM) | IC50 (second compound 0.1 µM) | IC50 (second compound 0.316 µM) | IC50 (second compound 1 µM) | IC50 (second compound 3.16 µM) | IC50 (second compound 10 µM)
inactive: viability, T/C [1] 88.6% | viability, T/C [2] 109% | viability, T/C [3] 94.2% | viability, T/C [4] 101% | viability, T/C [5] 113% | viability, T/C [6] 71.8% | viability, T/C [7] 101% | viability, T/C [8] 110% | viability, T/C [9] 103% | viability, T/C [10] 109% | viability, T/C [11] 103% | viability, T/C [12] 73.9% | viability, T/C [13] 99.8% | viability, T/C [14] 101% | viability, T/C [15] 98.1% | viability, T/C [16] 99.6% | viability, T/C [17] 91.8% | viability, T/C [18] 69.8% | viability, T/C [19] 103% | viability, T/C [20] 107% | viability, T/C [21] 94.9% | viability, T/C [22] 108% | viability, T/C [23] 104% | viability, T/C [24] 64.3% | viability, T/C [25] 104% | viability, T/C [26] 99.2% | viability, T/C [27] 101% | viability, T/C [28] 101% | viability, T/C [29] 103% | viability, T/C [30] 66.7% | viability, T/C [31] 101% | viability, T/C [32] 101% | viability, T/C [33] 108% | viability, T/C [34] 96.3% | viability, T/C [35] 73.9% | viability, T/C [36] 67.8%

CCc1cc2c(N3CCc4c(cc(Cn5ccnc5)cc4-c4cn(C)nc4C(F)(F)F)C3=O)cc(C)nc2c(OC)n1 + Cc1cccc(N(C)C(=O)C2C(O)CCN2c2nc(C)cc(C(F)(F)F)c2C#N)c1
4.28 µM: IC50 (second compound 0.316 µM)
inactive: viability, T/C [1] 107% | viability, T/C [2] 120% | viability, T/C [3] 83% | viability, T/C [4] 60.6% | viability, T/C [5] 46.4% | viability, T/C [6] 45.7% | viability, T/C [7] 108% | viability, T/C [8] 104% | viability, T/C [9] 74.8% | viability, T/C [10] 57.4% | viability, T/C [11] 49.6% | viability, T/C [12] 43.2% | viability, T/C [13] 99.8% | viability, T/C [14] 103% | viability, T/C [15] 81% | viability, T/C [16] 70.8% | viability, T/C [17] 45.7% | viability, T/C [18] 49.1% | viability, T/C [19] 105% | viability, T/C [20] 102% | viability, T/C [21] 85% | viability, T/C [22] 66.1% | viability, T/C [23] 48% | viability, T/C [24] 40% | viability, T/C [25] 106% | viability, T/C [26] 102% | viability, T/C [27] 90.2% | viability, T/C [28] 58% | viability, T/C [29] 54.6% | viability, T/C [30] 50.8% | viability, T/C [31] 106% | viability, T/C [32] 92.3% | viability, T/C [33] 81.7% | viability, T/C [34] 61.1% | viability, T/C [35] 48% | viability, T/C [36] 40.4%
2.24 µM: IC50 (second compound 0.1 µM)
2.76 µM: IC50 (second compound 10 µM)
2.35 µM: IC50 (second compound 0.0316 µM)
> 10 µM: IC50 (second compound 3.16 µM)
2.82 µM: IC50 (second compound 1 µM)

COc1cc2cc(C(=O)CCC(=O)O)sc2cc1OC + Cc1cccc(N(C)C(=O)C2C(O)CCN2c2nc(C)cc(C(F)(F)F)c2C#N)c1
> 10 µM: IC50 (second compound 0.0316 µM) | IC50 (second compound 0.1 µM) | IC50 (second compound 0.316 µM) | IC50 (second compound 1 µM) | IC50 (second compound 3.16 µM) | IC50 (second compound 10 µM)
inactive: viability, T/C [1] 99.9% | viability, T/C [2] 99.6% | viability, T/C [3] 92% | viability, T/C [4] 104% | viability, T/C [5] 117% | viability, T/C [6] 95.9% | viability, T/C [7] 100% | viability, T/C [8] 109% | viability, T/C [9] 109% | viability, T/C [10] 108% | viability, T/C [11] 116% | viability, T/C [12] 102% | viability, T/C [13] 96% | viability, T/C [14] 103% | viability, T/C [15] 102% | viability, T/C [16] 109% | viability, T/C [17] 103% | viability, T/C [18] 101% | viability, T/C [19] 105% | viability, T/C [20] 101% | viability, T/C [21] 95.2% | viability, T/C [22] 107% | viability, T/C [23] 106% | viability, T/C [24] 92.4% | viability, T/C [25] 110% | viability, T/C [26] 102% | viability, T/C [27] 104% | viability, T/C [28] 102% | viability, T/C [29] 112% | viability, T/C [30] 99.3% | viability, T/C [31] 109% | viability, T/C [32] 102% | viability, T/C [33] 99.6% | viability, T/C [34] 98.3% | viability, T/C [35] 119% | viability, T/C [36] 85.1%

O=C(Nc1ccc(O)c(NS(=O)(=O)c2ccc(F)cc2)c1)c1ccc(-c2ccccc2)cc1 + Cc1cccc(N(C)C(=O)C2C(O)CCN2c2nc(C)cc(C(F)(F)F)c2C#N)c1
inactive: viability, T/C [1] 109% | viability, T/C [2] 105% | viability, T/C [3] 103% | viability, T/C [4] 93.7% | viability, T/C [5] 101% | viability, T/C [6] 72.5% | viability, T/C [7] 109% | viability, T/C [8] 95.7% | viability, T/C [9] 108% | viability, T/C [10] 114% | viability, T/C [11] 96.5% | viability, T/C [12] 76.1% | viability, T/C [13] 95.2% | viability, T/C [14] 117% | viability, T/C [15] 92.1% | viability, T/C [16] 108% | viability, T/C [17] 103% | viability, T/C [18] 73% | viability, T/C [19] 98.3% | viability, T/C [20] 99.8% | viability, T/C [21] 107% | viability, T/C [22] 96.6% | viability, T/C [23] 82% | viability, T/C [24] 33.4% | viability, T/C [25] 117% | viability, T/C [26] 106% | viability, T/C [27] 95.3% | viability, T/C [28] 88.1% | viability, T/C [29] 95.4% | viability, T/C [30] 40.5% | viability, T/C [31] 108% | viability, T/C [32] 102% | viability, T/C [33] 91.8% | viability, T/C [34] 93.1% | viability, T/C [35] 87.2% | viability, T/C [36] 35.8%
8.18 µM: IC50 (second compound 3.16 µM)
6.74 µM: IC50 (second compound 1 µM)
> 10 µM: IC50 (second compound 0.0316 µM) | IC50 (second compound 0.1 µM) | IC50 (second compound 0.316 µM)
7.24 µM: IC50 (second compound 10 µM)
